Holding throughout (assay): cryo-EM structure of the complex
The target in assay [1] is T1, GTP-binding protein 10, GTPBP10 (Mus musculus, UniProt Q8K013).
T1 construct: BS3 cross-linked
T1 sequence (Q8K013 1-366): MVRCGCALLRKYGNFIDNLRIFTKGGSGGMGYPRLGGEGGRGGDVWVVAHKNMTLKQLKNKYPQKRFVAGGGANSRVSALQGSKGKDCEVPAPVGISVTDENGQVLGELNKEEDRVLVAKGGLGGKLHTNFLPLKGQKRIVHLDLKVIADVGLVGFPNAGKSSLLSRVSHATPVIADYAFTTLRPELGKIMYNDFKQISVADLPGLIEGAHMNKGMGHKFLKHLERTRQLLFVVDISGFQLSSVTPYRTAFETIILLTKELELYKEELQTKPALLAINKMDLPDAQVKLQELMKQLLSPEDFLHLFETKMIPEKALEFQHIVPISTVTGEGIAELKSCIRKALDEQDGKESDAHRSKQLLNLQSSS
Conditions: 0.5 mM GMPPNP in lysis and resuspension buffers, 10 mM Mg(OAc)2, BS3 cross-linked; relatively poor local resolution, ligand placed in binding pocket; mtLSU states B1 and B2.

Assay [2] deals with T2, GTP-binding protein 7 GTPBP7 (Mus musculus, UniProt Q8R2R6).
T2 construct: gene Mtg1; BS3 cross-linked
T2 sequence (Q8R2R6 1-326): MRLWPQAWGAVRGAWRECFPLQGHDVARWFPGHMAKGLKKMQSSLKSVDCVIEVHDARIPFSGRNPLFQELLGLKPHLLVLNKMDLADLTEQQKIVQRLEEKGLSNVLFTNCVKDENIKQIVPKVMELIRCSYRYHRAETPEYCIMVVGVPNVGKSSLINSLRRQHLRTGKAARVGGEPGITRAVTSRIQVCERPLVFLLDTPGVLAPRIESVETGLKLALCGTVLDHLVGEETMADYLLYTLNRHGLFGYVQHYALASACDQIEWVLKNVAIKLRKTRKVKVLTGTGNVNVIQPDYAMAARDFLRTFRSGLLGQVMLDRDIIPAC
To be noted: 0.5 mM GMPPNP in lysis and resuspension buffers, 10 mM Mg(OAc)2, BS3 cross-linked; pre-hydrolysis (closed) conformation; mtLSU states B1 and B2.

Assay [3] addresses rRNA methyltransferase 2, MRM2 (Mus musculus, UniProt Q9CPY0). In kind it is binding. To be noted: mtLSU state D; endogenous ligand, not added; SAM-depleted mitochondria; native sample, no GMPPNP.

Sequence of rRNA methyltransferase 2, MRM2 (Q9CPY0 25-246): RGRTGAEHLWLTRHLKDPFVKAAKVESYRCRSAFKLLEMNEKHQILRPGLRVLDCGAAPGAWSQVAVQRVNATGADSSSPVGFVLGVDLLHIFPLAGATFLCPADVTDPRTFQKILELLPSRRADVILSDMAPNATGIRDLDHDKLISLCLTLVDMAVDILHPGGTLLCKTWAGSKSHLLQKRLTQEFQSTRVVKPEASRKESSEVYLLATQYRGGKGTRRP

For the compound `Nc1nc2c(ncn2[C@@H]2O[C@H](COP(=O)(O)OP(=O)(O)NP(=O)(O)O)[C@@H](O)[C@H]2O)c(=O)[nH]1` [GMPPNP], the “cryo-EM structure of the complex” value was “A molecule of GMPPNP was placed in the binding pockets of GTPBP7 and GTPBP10” in assay [1]; “GTPBP7 adopts its GMPPNP-bound pre-hydrolysis conformation as observed previously” in assay [2].
`Nc1ncnc2c1ncn2[C@@H]1O[C@H](CSCC[C@H](N)C(=O)O)[C@@H](O)[C@H]1O` [SAH]: in assay [3], the “cryo-EM structure of the complex” value is on record as “A molecule of SAH was placed in the binding pocket of MRM2”.

These data come from PMC12198368, “The mitochondrial methylation potential gates mitoribosome assembly” (Nature Communications, 2025).
